According to ChEMBL document CHEMBL1128836, “Synthesis of prodrugs and a mutual prodrug of chlorzoxazone and acetaminophen based on a masked benzoxazolone” (Bioorg Med Chem Lett, 1995):
Blank lines part the entries; values can stand above or below the compound they belong to.

Assays:
[1] = Half life period in phosphate buffer at pH 7.4; format: ADME; details: for T1/2: buffer
[2] = Half life period in rat plasma at 37 degree Celsius temperature (pH 7.4); format: ADME, organism-based
Homo sapiens [3] = organism: Homo sapiens; assay: Half life period in human plasma at 37 degree Celsius temperature (pH 7.4)
[4] = Half life period in rat plasma at 25 degree Centigrade temperature (pH 7.4); format: ADME, organism-based
Homo sapiens [5] = organism: Homo sapiens; assay: Half life period in human plasma at 25 degree Celsius temperature (pH 7.4)
[6] = Half life period in phosphate buffer at pH 7.4 & 25 degrees C; format: ADME

half-life [1]: 2.58 min
Structure (SMILES): O=C(Nc1cc(Cl)ccc1O)OCC(F)(F)F

half-life ([1]; phosphate buffer): 566 min
Structure (SMILES): CC#CCOC(=O)Nc1cc(Cl)ccc1O

half-life ([1]; phosphate buffer): 1310 min
Structure (SMILES): O=C(Nc1cc(Cl)ccc1O)OCCCl

half-life ([1]; phosphate buffer): 0.2 min
Structure (SMILES): O=C(Nc1cc(Cl)ccc1O)Oc1ccccc1

T1/2 [1]: 0.0517 min
Structure (SMILES): O=C(Nc1cc(Cl)ccc1O)Oc1cccc(C(F)(F)F)c1

half-life ([1]; phosphate buffer): 108 min
Structure (SMILES): C#CCOC(=O)Nc1cc(Cl)ccc1O

Structure (SMILES): O=C(Nc1cc(Cl)ccc1O)OCC(Cl)(Cl)Cl
half-life [2]: 7.5 min
half-life [1]: 3.2 min
half-life (Homo sapiens [3]): 10.1 min

half-life [2]: 53.8 min
half-life [1]: 42.4 min
half-life (Homo sapiens [3]): 105 min
Structure (SMILES): O=C(Nc1cc(Cl)ccc1O)OCC(Cl)Cl

half-life ([1]; phosphate buffer): 0.125 min
Structure (SMILES): CC(=O)Nc1cccc(OC(=O)Nc2cc(Cl)ccc2O)c1

T1/2 [1]: 0.0633 min
Structure (SMILES): O=C(Nc1cc(Cl)ccc1O)Oc1cccc(Cl)c1

half-life [4]: 0.833 min
half-life (Homo sapiens [5]): 1.1 min
half-life ([1]; phosphate buffer): 0.118 min
half-life [6]: 0.6 min
Structure (SMILES): CC(=O)Nc1ccc(OC(=O)Nc2cc(Cl)ccc2O)cc1
